Assays:
Format in all cases: biochemical
[1] = target: T1, MMP-1 (Homo sapiens, UniProt P03956); assay: In vitro MMP-1 inhibition test
T1 construct: purchased R&D Systems 901-MP
T1 sequence (P03956 100-469): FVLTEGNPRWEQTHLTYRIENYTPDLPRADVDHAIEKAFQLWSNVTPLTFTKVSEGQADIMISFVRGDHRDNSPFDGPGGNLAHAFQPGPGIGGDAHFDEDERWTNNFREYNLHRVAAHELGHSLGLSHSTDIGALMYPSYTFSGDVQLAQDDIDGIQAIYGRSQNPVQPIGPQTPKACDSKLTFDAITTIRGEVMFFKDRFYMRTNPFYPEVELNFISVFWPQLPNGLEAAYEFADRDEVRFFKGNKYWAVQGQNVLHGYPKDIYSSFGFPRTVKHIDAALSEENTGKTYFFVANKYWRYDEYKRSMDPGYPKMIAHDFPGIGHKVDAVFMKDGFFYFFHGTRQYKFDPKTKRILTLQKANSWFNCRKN
Summary of the method: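 APMA-activated recombinant enzyme (e.g. 2 nM final) in 50 mM Tris/HCl pH 7.5, 10 mM CaCl2, 150 mM NaCl, 0.05% Brij-35 with compound in DMSO (e.g. 1 nM–30 μM). Quenched Mca-Pro-Leu-Gly-Leu-Dpa(Dnp)-Ala-Arg-NH2 substrate (e.g. 10 μM) started reaction; fluorescence (ex 320/em 410 nm) followed e.g. 120 min at 32° C; IC50 at 50% signal.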

[2] = target: T2, MMP-2 (Homo sapiens, UniProt P08253); assay: In vitro MMP-2 inhibition test
T2 construct: purchased R&D Systems 902-MP
T2 sequence (P08253 110-660): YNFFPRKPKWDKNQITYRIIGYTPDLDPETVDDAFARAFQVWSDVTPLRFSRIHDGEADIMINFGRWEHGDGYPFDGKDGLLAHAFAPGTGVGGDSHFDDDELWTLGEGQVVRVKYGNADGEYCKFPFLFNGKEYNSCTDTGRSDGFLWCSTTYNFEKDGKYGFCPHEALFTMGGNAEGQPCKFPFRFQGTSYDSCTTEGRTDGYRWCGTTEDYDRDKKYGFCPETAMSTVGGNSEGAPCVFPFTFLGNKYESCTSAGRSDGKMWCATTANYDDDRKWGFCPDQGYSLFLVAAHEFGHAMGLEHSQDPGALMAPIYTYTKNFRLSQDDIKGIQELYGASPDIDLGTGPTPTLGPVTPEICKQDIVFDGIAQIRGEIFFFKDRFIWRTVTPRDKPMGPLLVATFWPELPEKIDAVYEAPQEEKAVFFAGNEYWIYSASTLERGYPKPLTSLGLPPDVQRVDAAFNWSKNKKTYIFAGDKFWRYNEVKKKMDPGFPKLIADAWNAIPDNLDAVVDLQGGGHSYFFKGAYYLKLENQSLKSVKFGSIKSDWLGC
Summary of the method: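 APMA-activated recombinant MMP-2 (final e.g. 2 nM) in 50 mM Tris/HCl pH 7.5, 10 mM CaCl2, 150 mM NaCl, 0.05% Brij-35, with compound in DMSO. Started with quenched Mca-PLGL-Dpa(Dnp)-AR-NH2 (e.g. 10 μM); fluorescence (ex 320/em 410 nm) followed e.g. 120 min at 32° C.; IC50 at 50% signal.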

[3] = target: T3, MMP-9 (Homo sapiens, UniProt P14780); assay: In vitro MMP-9 inhibition test
T3 construct: purchased R&D Systems 911-MP
T3 sequence (P14780 107-707 limits assumed): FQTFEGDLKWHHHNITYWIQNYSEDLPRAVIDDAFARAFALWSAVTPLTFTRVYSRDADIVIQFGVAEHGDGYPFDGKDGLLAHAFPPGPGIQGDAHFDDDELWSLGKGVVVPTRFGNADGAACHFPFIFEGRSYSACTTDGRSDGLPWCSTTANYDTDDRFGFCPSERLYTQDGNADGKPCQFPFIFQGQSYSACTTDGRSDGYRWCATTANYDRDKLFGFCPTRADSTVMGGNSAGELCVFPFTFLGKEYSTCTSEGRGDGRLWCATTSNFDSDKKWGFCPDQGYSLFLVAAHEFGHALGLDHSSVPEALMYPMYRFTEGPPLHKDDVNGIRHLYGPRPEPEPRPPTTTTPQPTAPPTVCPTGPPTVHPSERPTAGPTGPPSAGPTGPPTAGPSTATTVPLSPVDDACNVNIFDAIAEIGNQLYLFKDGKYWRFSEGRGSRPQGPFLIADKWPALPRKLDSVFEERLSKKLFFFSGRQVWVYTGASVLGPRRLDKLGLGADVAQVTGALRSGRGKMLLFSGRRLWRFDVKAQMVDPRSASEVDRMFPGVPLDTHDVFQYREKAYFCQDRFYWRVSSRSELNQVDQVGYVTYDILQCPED
Summary of the method: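 Recombinant MMP-9 was APMA-activated and used at e.g. 0.1 nM final in 50 mM Tris/HCl pH 7.5, 10 mM CaCl2, 150 mM NaCl, 0.05% Brij-35, with compound at e.g. 1 nM to 30 μM. Quenched Mca-Pro-Leu-Gly-Leu-Dpa(Dnp)-Ala-Arg-NH2 substrate (e.g. 10 μM) was followed by fluorescence (ex 320/em 410 nm), e.g. 120 min at 32 °C. IC50 corresponds to 50% signal.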

| Compound | IC50 [1] [µM] | IC50 [2] [µM] | IC50 [3] [µM] |
| --- | --- | --- | --- |
| O=C(O)[C@@H]1[C@@H](Cn2nnc3ccc(C(F)(F)F)cc3c2=O)CC[C@H]1C(=O)c1ccc(SCc2ccc(Cl)c(Cl)c2)cc1 (single isomer, unassigned) [Example 80, (+)-(1RS,2RS,5SR)-2-{4-[(3,4-Dichlorobenzyl)sulphanyl]benzoyl}-5-{[4-oxo-6-(trifluoromethyl)-1,2,3-benzotriazin-3(4H)-yl]methyl}cyclopentanecarboxylic acid] | 2.5 | 1.4 | 0.78 |
| Cc1ccc2nnn(C[C@H]3CC[C@@H](C(=O)c4ccc(OCc5ccccc5)cc4)[C@@H]3C(=O)O)c(=O)c2c1 (single isomer, unassigned) [Example 92, (+)-(1RS,2RS,5SR)-2-[4-(Benzyloxy)benzoyl]-5-[(6-methyl-4-oxo-1,2,3-benzotriazin-3(4H)-yl)methyl]cyclopentanecarboxylic acid] | 3.1 | 0.047 | 0.013 |
| Cc1cccc(COc2ccc(C(=O)[C@@H]3CC[C@H](Cn4nnc5ccc(C)cc5c4=O)[C@H]3C(=O)O)cc2)c1 (single isomer, unassigned) [Example 98, (+)-(1RS,2RS,5SR)-2-{4-[(3-Methylbenzyl)oxy]benzoyl}-5-[(6-methyl-4-oxo-1,2,3-benzotriazin-3(4H)-yl)methyl]cyclopentanecarboxylic acid] | 9.6 | 0.44 | 0.28 |
| Cc1ccc2nnn(C[C@H]3CC[C@@H](C(=O)c4ccc(OCc5cccc(C(F)(F)F)c5)cc4)[C@@H]3C(=O)O)c(=O)c2c1 (single isomer, unassigned) [Example 101, (+)-(1RS,2SR,5RS)-2-[(6-Methyl-4-oxo-1,2,3-benzotriazin-3(4H)-yl)methyl]-5-(4-{[3-(trifluoromethyl)benzyl]oxy}benzoyl)cyclopentanecarboxylic acid] | 14 | 0.38 | 0.1 |
| Cc1ccc2nnn(C[C@H]3CC[C@@H](C(=O)c4ccc(OCc5cccc(Cl)c5)cc4)[C@@H]3C(=O)O)c(=O)c2c1 (single isomer, unassigned) [Example 104, (+)-(1RS,2RS,5SR)-2-{4-[(3-Chlorobenzyl)oxy]benzoyl}-5-[(6-methyl-4-oxo-1,2,3-benzotriazin-3(4H)-yl)methyl]cyclopentanecarboxylic acid] | 3.9 | 0.22 | 0.11 |
| COc1cccc(COc2ccc(C(=O)[C@@H]3CC[C@H](Cn4nnc5ccc(C)cc5c4=O)[C@H]3C(=O)O)cc2)c1 (single isomer, unassigned) [Example 107, (+)-(1RS,2RS,5SR)-2-{4-[(3-Methoxybenzyl)oxy]benzoyl}-5-[(6-methyl-4-oxo-1,2,3-benzotriazin-3(4H)-yl)methyl]cyclopentanecarboxylic acid] | 11 | 0.3 | 0.089 |
| Cc1ccc2nnn(C[C@H]3CC[C@@H](C(=O)c4ccc(OCc5cccc(OC(F)(F)F)c5)cc4)[C@@H]3C(=O)O)c(=O)c2c1 (single isomer, unassigned) [Example 110, (+)-(1RS,2SR,5RS)-2-[(6-Methyl-4-oxo-1,2,3-benzotriazin-3(4H)-yl)methyl]-5-(4-{[3-(trifluoromethoxy)benzyl]oxy}benzoyl)cyclopentanecarboxylic acid] | > 40 | 0.85 | 0.38 |
| Cc1ccc2nnn(C[C@H]3CC[C@@H](C(=O)c4ccc(OCC5CCCCC5)cc4)[C@@H]3C(=O)O)c(=O)c2c1 (single isomer, unassigned) [Example 117, (+)-(1RS,2RS,5SR)-2-[4-(Cyclohexylmethoxy)benzoyl]-5-[(6-methyl-4-oxo-1,2,3-benzotriazin-3(4H)-yl)methyl]cyclopentanecarboxylic acid] | 4.4 | 0.097 | 0.054 |

Reference: patent US20170022171A1, “2,5-DISUBSTITUTED CYCLOPENTANECARBOXYLIC ACIDS AND THEIR USE” (Bayer Pharma Aktiengesellschaft, priority 2014, published 2017)
